Data as given in ChEMBL document CHEMBL4130367, “Click chemistry-based synthesis and anticancer activity evaluation of novel C-14 1,2,3-triazole dehydroabietic acid hybrids” (Eur J Med Chem, 2017).
Calls of active or inactive are those of the source. The rule behind the calls is not given here.

Legend:
[1] = Half life in dog liver microsomes in presence of NADPH by HPLC analysis; type: ADME, Canis lupus familiaris, microsome
[2] = Selectivity index, ratio of IC50 for human HL7702 cells to IC50 for human SMCC7721 cells; type: toxicity; conditions: HL7702 cells versus SMCC7721 cells, read-out: Ratio IC50
SK-OV-3 = test: Cytotoxicity against human SKOV3 cells assessed as reduction in cell viability after 72 hrs by MTT assay; type: functional, cell-based; conditions: SK-OV-3, 72 h
[3] = Metabolic stability in dog liver microsomes assessed as parent compound remaining after 60 mins in presence of NADPH by HPLC analysis; type: ADME, Canis lupus familiaris, microsome; conditions: read-out: Stability
[4] = Octanol-water partition coefficient, log P of the compound; type: physicochemical
[5] = Metabolic stability in mouse liver microsomes assessed as parent compound remaining after 180 mins in presence of NADPH by HPLC analysis; type: ADME, microsome; conditions: read-out: Stability
SK-BR-3 = test: Cytotoxicity against human SKBR3 cells assessed as reduction in cell viability after 72 hrs by MTT assay; type: functional, cell-based; conditions: SK-BR-3, 72 h
MDA-MB-231 [6] = test: Induction of apoptosis in human MDA-MB-231 cells assessed as early apoptotic cells at 0.1 uM after 24 hrs by Annexin V-FITC/propidium iodide staining based flow cytometry (reference value: 2.33%); type: functional
[7] = Cytotoxicity against human […] cells assessed as reduction in cell viability after 72 hrs by MTT assay; type: functional, cell-based
[8] = Half life in rat liver microsomes in presence of NADPH by HPLC analysis; type: ADME, microsome
[9] = Metabolic stability in mouse liver microsomes assessed as parent compound remaining after 30 mins in presence of NADPH by HPLC analysis; type: ADME, microsome; conditions: read-out: Stability
[10] = Metabolic stability in mouse liver microsomes assessed as parent compound remaining after 60 mins in presence of NADPH by HPLC analysis; type: ADME, microsome; conditions: read-out: Stability
[11] = Selectivity index, ratio of IC50 for HFF cells to IC50 for human LNCAP cells; type: toxicity; conditions: HFF cells versus LNCAP cells, read-out: Ratio IC50
[12] = Metabolic stability in dog liver microsomes assessed as parent compound remaining after 30 mins in presence of NADPH by HPLC analysis; type: ADME, Canis lupus familiaris, microsome; conditions: read-out: Stability
MDA-MB-231 [13] = test: Induction of apoptosis in human MDA-MB-231 cells assessed as upregulation of Bax protein expression after 48 hrs by Western blot analysis; type: functional, cell-based
[14] = Metabolic stability in dog liver microsomes assessed as parent compound remaining after 120 mins in presence of NADPH by HPLC analysis; type: ADME, Canis lupus familiaris, microsome; conditions: 2 h
LNCaP = test: Cytotoxicity against human LNCAP cells assessed as reduction in cell viability after 72 hrs by MTT assay; type: functional, cell-based
[15] = Selectivity index, ratio of IC50 for human HL7702 cells to IC50 for human SKBR3 cells; type: toxicity; conditions: HL7702 cells versus SKBR3 cells, read-out: Ratio IC50

With `COC(=O)[C@]1(C)CCC[C@]2(C)c3ccc(C(C)C)c(NC(=O)Cn4cc(-c5cccc(NC(=O)OC(C)(C)C)c5)nn4)c3CC[C@@H]12` as the molecule, how does the t1/2 [1] read?
Its t1/2 is 1.16 h.

And the selectivity ratio [2]?
Its selectivity ratio is 7.6.

What about the IC50 (SK-OV-3) of the same molecule?
Its IC50 is 1.2 µM.

And the remaining at 1 h [3]?
The remaining at 1 h was 59%.

What about the logP [4] of the same molecule?
Its logP is 6.07.

What about the remaining at 3 h [5] of the same molecule?
Its remaining at 3 h is 11.1%.

What about the IC50 (SK-BR-3) of the same molecule?
The IC50 was 0.9 µM.

And the Activity (MDA-MB-231 [6])?
The Activity was 4.32%.

And the IC50 [7]?
Its IC50 is 1.1 µM.

And the half-life [8]?
Its half-life is 2.19 h.

What about the remaining at 0.5 h [9] of the same molecule?
The remaining at 0.5 h was 87.9%.

What about the remaining at 1 h [10] of the same molecule?
The remaining at 1 h was 72.6%.

What about the selectivity ratio [11] of the same molecule?
The selectivity ratio was 8.6.

And the remaining at 0.5 h [12]?
The remaining at 0.5 h was 77.3%.

What about the Activity (MDA-MB-231 [13]) of the same molecule?
Its Activity is “Active”.

What about the Stability [14] of the same molecule?
Its Stability is 4.8%.

And the IC50 (LNCaP)?
Its IC50 is 0.6 µM.

And the selectivity ratio [15]?
Its selectivity ratio is 8.4.
